# Assay results: patent publication US20220372014A1, “NEUROPROTECTIVE COMPOUNDS AND METHODS OF USE THEREOF” (The Johns Hopkins University, priority 2019, published 2022)
# Key:
# calcineurin = assay: Calcineurin cellular activity assay in SH-SY5Y cells; format: cell-based; settings: 1 μM, 6 h
# Experimental: Calcineurin activity assay. Calcineurin activity was measured using a calcineurin cellular activity assay (Enzo Life Sciences) according to manufacturer's protocols. See Sangadala et al. (2019) Int. J. Mol. Sci. 20:1900. SH-SY5Y cells treated with FK506 or compound 121 were placed in a desalting column to remove excess phosphates and nucleotides. Total phosphate activity was determined in the samples by incubating with a calcineurin-specific substrate supplied in the manufacturer and measured by monitoring absorbance at 620 nm. Calcineurin activity was calculated as the difference between total phosphatase activity minus the phosphatase activity in the presence of 10 mM EGTA that blocks calcineurin activity.
# DNA-MIF/PAAN complex = molecular target: T1, DNA-MIF/PAAN complex (Homo sapiens, UniProt P14174); assay: Electrophoretic mobility shift assay (EMSA) of PAAN/MIF with biotin-labeled DNA substrate (PS30); format: binding; settings: 1-100 μM
# T1 construct: GST (N, cleaved yes); made in house; host or cells: Escherichia coli
# T1 sequence (P14174 whole entry, one chain of several): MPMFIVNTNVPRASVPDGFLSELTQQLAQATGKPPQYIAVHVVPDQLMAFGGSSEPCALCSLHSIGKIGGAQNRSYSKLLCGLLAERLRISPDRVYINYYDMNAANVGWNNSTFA
# Experimental: Electrophoretic mobility shift assay (EMSA). EMSA assays were performed using the Light-Shift Chemiluminescent EMSA kit (Thermo Scientific) following the manufactures instruction. Recombinant PAAN/MIF protein (2 μM) was incubated with 1-100 μM PAANIB-1 as indicated in the binding buffer containing 10 mM MgCl2 for 10 min and further incubated with biotin-labeled DNA substrates (10 nM) for 30 min on ice. The mixture were separated on 6% retardation polyacrylamide and transferred to a Nylon membrane. Immunoblot analysis was performed to detect the biotin-labeled DNA using the Chemiluminescent Nucleic Acid Detection Module (Thermo Scientific).
# PAAN/MIF WT or variants = assay: Biolayer interferometry (ForteBio Octet) binding assay; parameters: species or system human
# Excerpt: Purification of PAAN/MIF recombinant proteins. Human PAAN/MIF (NM_002415) cDNA and its variants were subcloned into pGEX-6β-1 vector (GE Healthcare) and mutants were generated using a QuikChange site-directed mutagenesis kit (Stratagene). The sequences were confirmed by automated DNA sequencing. The protein was expressed and purified from Escherichia coli by glutathione sepharose (GE Healthcare). The GST tag was subsequently proteolytically removed. GST protein was used as a negative control in the nuclease assay and PAAN/MIF proteins purified by FPLC using Superdex 200 10/300GL column (GE Healthcare, Life Sciences) were also used in the nuclease assays.
# Biolayer interferometry assay. The dose-dependent binding of compound 121 for PAAN/MIF WT or PAAN/MIF variants were determined by a biolayer interferometry assay using Octet RED96 (ForteBio). See Guo et al. (2018) Nat. Chem. 11:254-63. All the proteins used in this assay were tagged with GST. Anti-GST biosensor tips (ForteBio) were used to immobilize the GST proteins after prewetting with 1X kinetic buffer (ForteBio). The equilibrated GST biosensors were loaded with PAAN/MIF WT or variants (25 μg/ml). Background binding controls were measured by sensors that were incubated in buffer without proteins. All assays were performed by a standard protocol in 96-well black plates (Greiner Bio) with a total volume of 200 μl per well. All the data were analyzed by Octet data analysis software.
# pS6 kinase activity = assay: Immunoblot of pS6K, pS6 and p4E-BP1 levels in SH-SY5Y cells; format: cell-based; settings: 0.5 or 1 μM, 3 h
# Excerpt: FIGS. 14A-14G show the characterization of compound 121. […] Bars represent means±s.e.m. ***P<0.0005, two-way ANOVA followed by Tukey's post hoc test (n=4). […] Bars represent mean±s.e.m. ***P<0.0005, two-way ANOVA followed by Tukey's post hoc test (n=4). […] Bars represent means±s.e.m. **P<0.005, ***P<0.0005, one-way ANOVA followed by Tukey's post hoc test (n=3). […] Bar represent mean±s.e.m. ***P<0.0005, one-way ANOVA followed by Tukey's post hoc test (n=3). […] Quantification of inhibition of PARP-1 activity by compound 56, compound 121 and ABT-888 is shown. Graphs represent mean±s.e.m. ***P<0.0005, two-way ANOVA followed by Tukey's post hoc test (n=3). FIGS. 14F and 14G show Alamar blue cell viability assay from SH-SY5Y cells pre-incubated with either compound 56 or 121 in response to (14F) 0.5 μM staurosporine (STS) or (14G) from HT 22 cells incubated with 1 ng/ml of TNF-α with 50 μM z-VAD. Bars represent mean±s.e.m. ***P<0.0005, two-way ANOVA followed by Tukey's post hoc test (n=5).
# Tissue lysate preparation and western blot analysis. […] Protein concentrations were determined using the BCA assay (Pierce) and samples were separated using SDS polyacrylamide gels and transferred onto nitrocellulose membranes. […]
smiles,measurement,setting,value
COc1ccc(CC[C@H]2OC(=O)[C@@H]3CCCCN3C(=O)C(=O)C(C)(C)COC(=O)C=CCCN(C)C(=O)[C@@H]3CCCN3C(=O)[C@H](COC(C)(C)C)N(C)C(=O)C(c3ccccc3)NC(=O)[C@H](C)N(C)C(=O)COc3cc(F)cc2c3)cc1OC (mixture of isomers) [compound 121],FK506 sensitive calcineurin activity,calcineurin,failed to inhibit
same,interaction of PAAN/MIF with its substrate,DNA-MIF/PAAN complex,does not disrupt
same,direct binding of PAAN/MIF WT and Y99A mutant,PAAN/MIF WT or variants,exhibited binding
same,"direct binding of mutants L61A, N72A and 60-63A",PAAN/MIF WT or variants,remarkably decreased
same,rapamycin sensitive pS6 kinase activity,pS6 kinase activity,failed to inhibit
